A short description of data set [1]: Solubility in phosphate buffered saline (receiver fluid). The note with it: aqueous buffer. It is filed as physicochemical. The text has this: (§1) Accurate determination of the rate of transport of buspirone through the skin relies upon the maintenance of sink conditions in the receiver fluid. […] Such high solubility was sufficient to ensure sink conditions for the study.

Data set [2] has as its system oxazolone hypersensitivity reaction. To be noted: mice, cited from earlier work.
The nature of data set [3]: Stability in the receiver fluid. The note with it: PBS receiver fluid, length of the study (48 hours). It is filed as physicochemical.
Description: as §1

Counter-ions that a name gives are not always drawn.

On to `O=C1CC2(CCCC2)CC(=O)N1CCCCN1CCN(c2ncccn2)CC1` [buspirone hydrochloride], for which the solubility in data set [1] is more than 3000 µg/mL.
Regarding `O=C1CC2(CCCC2)CC(=O)N1CCCCN1CCN(c2ncccn2)CC1` [buspirone, 8-[4-[4-(2-pyrimidyl)-1-piperazinyl]butyl]-8-azaspiro[4.5]decane-7,9-dione], in data set [2] (applied topically in an undefined solution, over the range 100 mg/ml to 0.25 mg/ml, McAloon et al. 1995), the oxazolone ear swelling entry is “inhibits oxazolone ear swelling”. In data set [2] (from U.S. Pat. No. 5,484,788, 5,631,017, WO 94/22448), the “inhibition of oxazolone hypersensitivity reactions” value is given as “inhibit oxazolone hypersensitivity reactions”. The “stability in the receiver fluid” value in data set [3] is “stable”.
